Among the data in PubChem BioAssay AID1259407 (Chemical Carcinogenesis Research Information System (CCRIS), 2018) are mutagenic call values, retold here.

The data set relates to CCRIS mutagenicity, Ames/micronucleus/aberration tests. Nature of the data set: CCRIS mutagenicity studies.
Where [1] appears, read: Test System: AMES SALMONELLA TYPHIMURIUM, Strain/Indicator: TA98, Metabolic Activation: NONE, Method: PREINCUBATION
[2] abbreviates: Test System: AMES SALMONELLA TYPHIMURIUM, Strain/Indicator: TA100, Metabolic Activation: NONE, Method: PREINCUBATION
Where [3] appears, read: Test System: AMES SALMONELLA TYPHIMURIUM, Strain/Indicator: TA98, Metabolic Activation: RAT, LIVER, S-9, AROCLOR 1254, Method: PREINCUBATION

The structures appear in SMILES notation. Activity calls are given as the source filed them. No rule for the calls is given here.

With `CC(O)CN` (stereo unspecified), the mutagenic call (Test System: AMES SALMONELLA TYPHIMURIUM, Strain/Indicator: TA98, Metabolic Activation: HAMSTER, LIVER, S-9, AROCLOR 1254 (10%), Method: PREINCUBATION) was “inactive; negative”; the mutagenic call under setting [1] was “inactive; negative”; the mutagenic call (Test System: AMES SALMONELLA TYPHIMURIUM, Strain/Indicator: TA98, Metabolic Activation: RAT, LIVER, S-9, AROCLOR 1254 (10%), Method: PREINCUBATION) is “inactive; negative”; the mutagenic call (Test System: AMES SALMONELLA TYPHIMURIUM, Strain/Indicator: TA98, Metabolic Activation: RAT, LIVER, S-9, KC 500, Method: PREINCUBATION) was “inactive; negative”; the mutagenic call (Test System: AMES SALMONELLA TYPHIMURIUM, Strain/Indicator: TA100, Metabolic Activation: HAMSTER, LIVER, S-9, AROCLOR 1254 (10%), Method: PREINCUBATION) was “inactive; negative”; the mutagenic call under setting [2] is “inactive; negative”. Besides, the mutagenic call (Test System: AMES SALMONELLA TYPHIMURIUM, Strain/Indicator: TA100, Metabolic Activation: RAT, LIVER, S-9, AROCLOR 1254 (10%), Method: PREINCUBATION) was “inactive; negative”; the mutagenic call (Test System: AMES SALMONELLA TYPHIMURIUM, Strain/Indicator: TA100, Metabolic Activation: RAT, LIVER, S-9, KC 500, Method: PREINCUBATION) is “inactive; negative”; the mutagenic call (Test System: AMES SALMONELLA TYPHIMURIUM, Strain/Indicator: TA1535, Metabolic Activation: HAMSTER, LIVER, S-9, AROCLOR 1254 (10%), Method: PREINCUBATION) was “active; positive”; the mutagenic call (Test System: AMES SALMONELLA TYPHIMURIUM, Strain/Indicator: TA1535, Metabolic Activation: NONE, Method: PREINCUBATION) is “inactive; negative”; the mutagenic call (Test System: AMES SALMONELLA TYPHIMURIUM, Strain/Indicator: TA1535, Metabolic Activation: RAT, LIVER, S-9, AROCLOR 1254 (10%), Method: PREINCUBATION) was “active; positive”; the mutagenic call (Test System: AMES SALMONELLA TYPHIMURIUM, Strain/Indicator: TA1535, Metabolic Activation: RAT, LIVER, S-9, KC 500, Method: PREINCUBATION) was “inactive; negative”. Further, the mutagenic call runs as follows: (Test System: AMES SALMONELLA TYPHIMURIUM, Strain/Indicator: TA1537, Metabolic Activation: HAMSTER, LIVER, S-9, AROCLOR 1254 (10%), Method: PREINCUBATION) “inactive; negative”; (Test System: AMES SALMONELLA TYPHIMURIUM, Strain/Indicator: TA1537, Metabolic Activation: NONE, Method: PREINCUBATION) “inactive; negative”; (Test System: AMES SALMONELLA TYPHIMURIUM, Strain/Indicator: TA1537, Metabolic Activation: RAT, LIVER, S-9, AROCLOR 1254 (10%), Method: PREINCUBATION) “inactive; negative”; (Test System: AMES SALMONELLA TYPHIMURIUM, Strain/Indicator: TA1537, Metabolic Activation: RAT, LIVER, S-9, KC 500, Method: PREINCUBATION) “inactive; negative”; (Test System: AMES SALMONELLA TYPHIMURIUM, Strain/Indicator: TA1538, Metabolic Activation: NONE, Method: PREINCUBATION) “inactive; negative”; (Test System: AMES SALMONELLA TYPHIMURIUM, Strain/Indicator: TA1538, Metabolic Activation: RAT, LIVER, S-9, KC 500, Method: PREINCUBATION) “inactive; negative”. Further, the mutagenic call is “inactive; negative” (Test System: Ames Salmonella typhimurium, Strain/Indicator: TA98, Metabolic Activation: None, Method: Preincubation); “inactive; negative” (Test System: Ames Salmonella typhimurium, Strain/Indicator: TA98, Metabolic Activation: Rat, Liver, S9, Sodium phenobarbital and 5,6-benzoflavone (10%), Method: Preincubation); “inactive; negative” (Test System: Ames Salmonella typhimurium, Strain/Indicator: TA100, Metabolic Activation: None, Method: Preincubation); “inactive; negative” (Test System: Ames Salmonella typhimurium, Strain/Indicator: TA100, Metabolic Activation: Rat, Liver, S9, Sodium phenobarbital and 5,6-benzoflavone (10%), Method: Preincubation); “inactive; negative” (Test System: Ames Salmonella typhimurium, Strain/Indicator: TA1535, Metabolic Activation: None, Method: Preincubation); “inactive; negative” (Test System: Ames Salmonella typhimurium, Strain/Indicator: TA1535, Metabolic Activation: Rat, Liver, S9, Sodium phenobarbital and 5,6-benzoflavone (10%), Method: Preincubation). The mutagenic call (Test System: Ames Salmonella typhimurium, Strain/Indicator: TA1537, Metabolic Activation: None, Method: Preincubation) was “inactive; negative”; the mutagenic call (Test System: Ames Salmonella typhimurium, Strain/Indicator: TA1537, Metabolic Activation: Rat, Liver, S9, Sodium phenobarbital and 5,6-benzoflavone (10%), Method: Preincubation) is “inactive; negative”; the mutagenic call (Test System: E. COLI, Strain/Indicator: WP2 UVRA, Metabolic Activation: NONE, Method: PREINCUBATION) is “inactive; negative”; the mutagenic call (Test System: E. COLI, Strain/Indicator: WP2 UVRA, Metabolic Activation: RAT, LIVER, S-9, KC 500, Method: PREINCUBATION) was “inactive; negative”; the mutagenic call (Test System: E. coli, Strain/Indicator: WP2uvrA/pKM101, Metabolic Activation: None, Method: Preincubation) is “inactive; negative”; the mutagenic call (Test System: E. coli, Strain/Indicator: WP2uvrA/pKM101, Metabolic Activation: Rat, Liver, S9, Sodium phenobarbital and 5,6-benzoflavone (10%), Method: Preincubation) is “inactive; negative”.
Turning to `O=[N+]([O-])c1ccc(Nc2ccc(N=C=S)cc2)cc1`, the mutagenic call is, setting by setting: under setting [1], “inactive; negative”; (Test System: AMES SALMONELLA TYPHIMURIUM, Strain/Indicator: TA98, Metabolic Activation: NONE, Method: STANDARD PLATE) “inactive; negative”; under setting [3], “inactive; negative”; (Test System: AMES SALMONELLA TYPHIMURIUM, Strain/Indicator: TA98, Metabolic Activation: RAT, LIVER, S-9, AROCLOR 1254 OR PHENOBARBITOL, Method: STANDARD PLATE) “inactive; negative”; (Test System: AMES SALMONELLA TYPHIMURIUM, Strain/Indicator: TA100, Metabolic Activation: NONE, Method: STANDARD PLATE) “inactive; negative”; (Test System: AMES SALMONELLA TYPHIMURIUM, Strain/Indicator: TA100, Metabolic Activation: RAT, LIVER, S-9, AROCLOR 1254 OR PHENOBARBITOL, Method: STANDARD PLATE) “inactive; negative”. The mutagenic call was “inactive; negative” (Test System: AMES SALMONELLA TYPHIMURIUM, Strain/Indicator: TA1535, Metabolic Activation: NONE, Method: STANDARD PLATE); “inactive; negative” (Test System: AMES SALMONELLA TYPHIMURIUM, Strain/Indicator: TA1535, Metabolic Activation: RAT, LIVER, S-9, AROCLOR 1254 OR PHENOBARBITOL, Method: STANDARD PLATE); “inactive; negative” (Test System: AMES SALMONELLA TYPHIMURIUM, Strain/Indicator: TA1537, Metabolic Activation: NONE, Method: STANDARD PLATE); “inactive; negative” (Test System: AMES SALMONELLA TYPHIMURIUM, Strain/Indicator: TA1537, Metabolic Activation: RAT, LIVER, S-9, AROCLOR 1254 OR PHENOBARBITOL, Method: STANDARD PLATE); “inactive; negative” (Test System: AMES SALMONELLA TYPHIMURIUM, Strain/Indicator: TA1538, Metabolic Activation: NONE, Method: STANDARD PLATE); “inactive; negative” (Test System: AMES SALMONELLA TYPHIMURIUM, Strain/Indicator: TA1538, Metabolic Activation: RAT, LIVER, S-9, AROCLOR 1254 OR PHENOBARBITOL, Method: STANDARD PLATE).
In the case of `c1ccc(N2CCNCC2)cc1`, the mutagenic call is “inactive; negative” (Test System: AMES SALMONELLA TYPHIMURIUM, Strain/Indicator: TA97, Metabolic Activation: HAMSTER, LIVER, S-9, AROCLOR 1254, Method: PREINCUBATION); “inactive; negative” (Test System: AMES SALMONELLA TYPHIMURIUM, Strain/Indicator: TA97, Metabolic Activation: NONE, Method: PREINCUBATION); “inactive; negative” (Test System: AMES SALMONELLA TYPHIMURIUM, Strain/Indicator: TA97, Metabolic Activation: RAT, LIVER, S-9, AROCLOR 1254, Method: PREINCUBATION); “inactive; negative” (Test System: AMES SALMONELLA TYPHIMURIUM, Strain/Indicator: TA98, Metabolic Activation: HAMSTER, LIVER, S-9, AROCLOR 1254, Method: PREINCUBATION); “inactive; negative” under setting [1]; “inactive; negative” under setting [3]. In addition, the mutagenic call runs as follows: (Test System: AMES SALMONELLA TYPHIMURIUM, Strain/Indicator: TA100, Metabolic Activation: HAMSTER, LIVER, S-9, AROCLOR 1254, Method: PREINCUBATION) “inactive; negative”; under setting [2], “inactive; negative”; (Test System: AMES SALMONELLA TYPHIMURIUM, Strain/Indicator: TA100, Metabolic Activation: RAT, LIVER, S-9, AROCLOR 1254, Method: PREINCUBATION) “inactive; negative”.
